Laboratory results as given in patent publication US20260015322A1, “DELIVERY OF THERAPEUTIC ALKALOID COMPOUNDS” (priority 2022, published 2026).

How the values were obtained:
[1] = Plasma Stability Assay (Example A2), human plasma; assay type: in vitro ADME; conditions: 37° C., prodrug remaining
Experimental: (§1) Each test was carried out in duplicate for each time point; 0 min, 15 min, 30 min, 60 min, 120, 240 min. […]

[2] = Plasma Stability Assay (Example A2), mouse plasma; assay type: in vitro ADME; conditions: Mouse Plasma, 37° C., prodrug remaining
Experimental: as §1

[3] = Hydrolysis Assay - Condition 1 (SGF); assay type: physicochemical; conditions: Condition 1: SGF with pepsin pH 1.5, 37° C., 0.5 mM
Experimental: 50 uL of compound (10 mM) in DMSO was diluted into 950 uL of Simulated Gastric Fluid (SGF) with pepsin (pH 1.5) to a final concentration of 0.5 mM. The hydrolysis kinetics were conducted at 37° C. and measured by LCMS at a certain time interval.
(§2) The corresponding LCMS chromatogram were recorded and the conversions were calculated by integration of each peak.
(§3) • 1) LCMS spectra were obtained using Agilent 1200G1956A or SHIMADZU LCMS-2020. • Standard LCMS conditions were as follows (running time 1.55 minutes): • Acidic condition: Mobile Phase A: 0.0375% TFA in water (v/v). Mobile Phase B: 0.01875% TFA in acetonitrile (v/v); Column: Kinetex EVO C18 30*2.1 mm, 5 μm. • Basic condition: Mobile Phase A: 0.025% NH3·H2O in water (v/v). Mobile Phase B: Acetonitrile; Column: Kinetex EVO C18 2.1×30 mm, 5 μm. • 2) Conversion (%)=peak area 1/(peak area 1+peak area 2)*100%, peak area 1 is the integration of hydrolyzed product, peak area 2 is the integration of starting material.

[4] = Hydrolysis Assay - Condition 2 (DI Water); assay type: physicochemical; conditions: 25° C., 0.5 mM
Experimental: 50 uL of compound (10 mM) in DMSO was diluted into 950 uL of DI water to a final concentration of 0.5 mM. The hydrolysis kinetics were conducted at 25° C. and measured by LCMS at a certain time interval.
as §2, §3

[5] = Plasma Stability Assay (Example A3), human plasma; assay type: in vitro ADME; conditions: 10 μM, 37° C., prodrug remaining
Excerpt: (§4) The data is represented in the table below.

[6] = Plasma Stability Assay (Example A3), rat plasma; assay type: in vitro ADME; conditions: 10 μM, 37° C., prodrug remaining
Excerpt: as §4

| Structure (SMILES) | Prodrug (%) ([1]; 0 min) | Prodrug (%) ([1]; 15 min) | Prodrug (%) ([1]; 30 min) | Prodrug (%) ([1]; 60 min) | Prodrug (%) ([1]; 120 min) | Prodrug (%) ([1]; 240 min) | Prodrug (%) ([2]; 0 min) | Prodrug (%) ([2]; 15 min) | Prodrug (%) ([2]; 30 min) | Prodrug (%) ([2]; 60 min) | Prodrug (%) ([2]; 120 min) | Prodrug (%) ([2]; 240 min) | Conversion (%) ([3]; 1 min) | Conversion (%) ([3]; 5 min) | Conversion (%) ([3]; 30 min) | Conversion (%) ([3]; 1 h) | Conversion (%) ([3]; 4 h) | Conversion (%) ([3]; 24 h) | Conversion (%) ([4]; 1 min) | Conversion (%) ([4]; 5 min) | further results |
| --- | --- | --- | --- | --- | --- | --- | --- | --- | --- | --- | --- | --- | --- | --- | --- | --- | --- | --- | --- | --- | --- |
| COc1ccc([C@@]23CCC(OC(=O)N(C)C)=C[C@@H]2N(C)CC3)cc1OC [Compound 324, [(3aS,7aS)-3a-(3,4-dimethoxyphenyl)-1-methyl-3,4,5,7a-tetrahydro-2H-indol-6-yl] N,N-dimethylcarbamate] | 100.0% | 98.2% | 98.7% | >99% | >99% | 96.5% | 100.0% | 97.4% | 94.4% | 94.9% | 92.6% | 88.9% | 0% | 0% | 0% | 0% | 0% | 0% | 0% | 0% | Conversion (%) ([4]; 30 min): 0%; Conversion (%) ([4]; 1 h): 0%; Conversion (%) ([4]; 4 h): 0%; Conversion (%) ([4]; 24 h): 0% |
| COc1ccc([C@@]23CCC(OP(=O)(Oc4ccccc4)Oc4ccccc4)=C[C@@H]2N(C)CC3)cc1OC [Compound 320, [(3aS,7aS)-3a-(3,4-dimethoxyphenyl)-1-methyl-3,4,5,7a-tetrahydro-2H-indol-6-yl]diphenyl phosphate] | 100% | 95.7% | 98.5% | 95.7% | 98.2% | 95.3% | 100% | 58.5% | 46.5% | 30.7% | 19.4% | 11.7% | 0% | 0% | 0% | 0% | 0% | 0% | 0% | 0% | Conversion (%) ([4]; 30 min): 0%; Conversion (%) ([4]; 1 h): 0%; Conversion (%) ([4]; 4 h): 0%; Conversion (%) ([4]; 24 h): 0% |
| COc1ccc([C@@]23CCC(OC(=O)N4CCN(C)CC4)=C[C@@H]2N(C)CC3)cc1OC [Compound 327, [(3aS,7aS)-3a-(3,4-dimethoxyphenyl)-1-methyl-3,4,5,7a-tetrahydro-2H-indol-6-yl]4-methylpiperazine-1-carboxylate] | 100% | >99% | 98.9% | >99% | >99% | 94.4% | 100% | >99% | >99% | >99% | >99% | >99% | 0% | 0% | 0% | 0% | 0% | 0% | 0% | 0% | Conversion (%) ([4]; 30 min): 0%; Conversion (%) ([4]; 1 h): 0%; Conversion (%) ([4]; 4 h): 0%; Conversion (%) ([4]; 24 h): 0% |
| COc1ccc([C@@]23CCC(OP(=O)(OCc4ccccc4)OCc4ccccc4)=C[C@@H]2N(C)CC3)cc1OC [Compound 319, [(3aS,7aS)-3a-(3,4-dimethoxyphenyl)-1-methyl-3,4,5,7a-tetrahydro-2H-indol-6-yl] dibenzyl phosphate] | – | – | – | – | – | – | – | – | – | – | – | – | 2% | 5% | 25% | 26% | 60% | 61% | 2% | 4% | Conversion (%) ([4]; 30 min): 5%; Conversion (%) ([4]; 1 h): 10%; Conversion (%) ([4]; 4 h): 20%; Conversion (%) ([4]; 24 h): 59% |
| CCN(C)C(=O)OC1=C[C@@H]2N(C)CC[C@]2(c2ccc(OC)c(OC)c2)CC1 [Compound 326, [(3aS,7aS)-3a-(3,4-dimethoxyphenyl)-1-methyl-3,4,5,7a-tetrahydro-2H-indol-6-yl]N-ethyl-N-methyl-carbamate] | 100.0% | 98.2% | 99.9% | 98.4% | >99% | 93.9% | 100.0% | >99% | 96.6% | >99% | >99% | 98.5% | 0% | 0% | 0% | 0% | 0% | 0% | 0% | 0% | Conversion (%) ([4]; 30 min): 0%; Conversion (%) ([4]; 1 h): 0%; Conversion (%) ([4]; 4 h): 0%; Conversion (%) ([4]; 24 h): 0% |
| COc1ccc([C@@]23CCC(OP(=O)(O)OCOC(=O)C(C)C)=C[C@@H]2N(C)CC3)cc1OC [Compound 408, [[(3aS,7aS)-3a-(3,4-dimethoxyphenyl)-1-methyl-3,4,5,7a-tetrahydro-2H-indol-6-yl]oxy-hydroxy-phosphoryl]oxymethyl 2-methylpropanoate] | – | – | – | – | – | – | – | – | – | – | – | – | – | – | – | – | – | – | – | – | Prodrug (%) ([5]; 0 min): 100.0%; Prodrug (%) ([5]; 10 min): 94.2%; Prodrug (%) ([5]; 30 min): 82.6%; Prodrug (%) ([5]; 60 min): 69.1%; Prodrug (%) ([5]; 120 min): 45.4%; Prodrug (%) ([5]; 240 min): 23.5%; Prodrug (%) ([6]; 0 min): 100.0%; Prodrug (%) ([6]; 10 min): 63.8%; Prodrug (%) ([6]; 30 min): 29.2%; Prodrug (%) ([6]; 60 min): 8.2%; Prodrug (%) ([6]; 120 min): 0.8%; Prodrug (%) ([6]; 240 min): 0.0% |
| COc1ccc([C@@]23CCC(OP(=O)(O)O)=C[C@@H]2N(C)CC3)cc1OC [Compound 359, [(3aS,7aS)-3a-(3,4-dimethoxyphenyl)-1-methyl-3,4,5,7a-tetrahydro-2H-indol-6-yl] dihydrogen phosphate] | 100% | 69.0% | 65.1% | 50.4% | 32.8% | 25.6% | 100% | >99% | 82.7% | 79.0% | 50.7% | 59.1% | – | – | – | – | – | – | – | – | – |
| COc1ccc([C@@]23CCC(OP(=O)(O)OCOC(=O)C(C)(C)C)=C[C@@H]2N(C)CC3)cc1OC [Compound 409, [[(3aS,7aS)-3a-(3,4-dimethoxyphenyl)-1-methyl-3,4,5,7a-tetrahydro-2H-indol-6-yl]oxy-hydroxy-phosphoryl]oxymethyl 2,2-dimethylpropanoate] | – | – | – | – | – | – | – | – | – | – | – | – | – | – | – | – | – | – | – | – | Prodrug (%) ([5]; 0 min): 100.0%; Prodrug (%) ([5]; 10 min): >99%; Prodrug (%) ([5]; 30 min): 95.2%; Prodrug (%) ([5]; 60 min): 93.0%; Prodrug (%) ([5]; 120 min): 87.3%; Prodrug (%) ([5]; 240 min): 75.8%; Prodrug (%) ([6]; 0 min): 100.0%; Prodrug (%) ([6]; 10 min): 89.9%; Prodrug (%) ([6]; 30 min): 81.2%; Prodrug (%) ([6]; 60 min): 71.0%; Prodrug (%) ([6]; 120 min): 44.5%; Prodrug (%) ([6]; 240 min): 22.7% |
| COc1ccc([C@@]23CCC(OP(=O)(O)OCOC(=O)OC(C)C)=C[C@@H]2N(C)CC3)cc1OC [Compound 410, [[(3aS,7aS)-3a-(3,4-dimethoxyphenyl)-1-methyl-3,4,5,7a-tetrahydro-2H-indol-6-yl]oxy-hydroxy-phosphoryl]oxymethyl isopropyl carbonate] | – | – | – | – | – | – | – | – | – | – | – | – | – | – | – | – | – | – | – | – | Prodrug (%) ([5]; 0 min): 100.0%; Prodrug (%) ([5]; 10 min): 96.3%; Prodrug (%) ([5]; 30 min): 98.8%; Prodrug (%) ([5]; 60 min): 92.7%; Prodrug (%) ([5]; 120 min): 88.2%; Prodrug (%) ([5]; 240 min): 75.5%; Prodrug (%) ([6]; 0 min): 100.0%; Prodrug (%) ([6]; 10 min): 63.0%; Prodrug (%) ([6]; 30 min): 25.4%; Prodrug (%) ([6]; 60 min): 7.1%; Prodrug (%) ([6]; 120 min): 0.52%; Prodrug (%) ([6]; 240 min): 0.01% |
